# Results from patent US20240041042A1, “1-(PYRIDYL)-5-AZINYLPYRAZOLE DERIVATIVES, AND THEIR USE FOR CONTROL OF UNDESIRED PLANT GROWTH” (Bayer Aktiengesellschaft, priority 2020, published 2024).
# Where two headings read alike, the source gives them in different places.
# Experiments:
# Format in all cases: in vivo
# [1] = tested on: Alopecurus myosuroides (ALOMY); test: Pre-emergence herbicidal action against ALOMY; details: 320 g/ha; scored visually after about 3 weeks; 100% = plants have died
# Outline: (§1)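 Pre-emergence soil-surface spray, WP/EC formulation, 0.5% additive, 600 l/ha water, rates of 320 g/ha or lower. Greenhouse, ~3 wk. Visual score, % of untreated control (100% = plants dead, 0% = like control).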
# [2] = tested on: Digitaria sanguinalis (DIGSA); test: Pre-emergence herbicidal action against DIGSA
# Outline: as §1
# Viola tricolor (VIOTR) = test: Pre-emergence herbicidal action against VIOTR
# Outline: as §1
# Oryza sativa (ORYSA) [3] = details: pre-emergence, crop plant compatibility, in comparison to untreated controls
# Outline: (§2)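 Crop injury rated visually in percent against untreated plants roughly 3 weeks after treatment (0% no effect, 100% plants dead). Compounds, as WP or EC with 0.5% additive in 600 l/ha water, were applied to the covering soil right after sowing; greenhouse growth. Suffixes a, b, c denote different dosages.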
# [4] = tested on: Triticum aestivum (TRZAS); details: pre-emergence, crop plant compatibility, in comparison to untreated controls
# Outline: as §2
# Zea mays (ZEAMX) [5] = details: pre-emergence, crop plant compatibility, in comparison to untreated controls
# Outline: as §2
# [6] = tested on: Alopecurus myosuroides (ALOMY); test: Post-emergence herbicidal action against ALOMY; details: 80 g/ha, visual rating about 3 weeks after treatment vs untreated controls (100% = plants have died, 0% = like control plants)
# Outline: (§3)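 Doses of 320 g/ha or lower, suffixes a, b and c marking different dosages, were applied post-emergence at the one-leaf stage in 600 l/ha water with 0.5% additive. Damage was assessed visually after about 3 weeks in the greenhouse.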
# Setaria viridis (SETVI) [7] = test: Post-emergence herbicidal action against SETVI; details: dosage 80 g/ha
# Outline: as §3
# Oryza sativa (ORYSA) [8] = details: crop plant compatibility
# Outline: (§4)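 Effects were read visually as % versus untreated controls (0% = no effect, 100% = death) about 3 weeks post-treatment. Application was a post-emergence spray at the one-leaf stage of WP/EC formulations with 0.5% additive at 600 l/ha. Different dosages are denoted a, b and c.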
# [9] = tested on: Triticum aestivum (TRZAS); details: crop plant compatibility, effect vs untreated controls
# Outline: as §4
# Zea mays (ZEAMX) [10] = details: for Post-emergence action against ZEAMX in % (crop plant compatibility): 20 g/ha, effect in comparison to untreated controls; for Post-emergence action against ZEAMX in %: crop plant compatibility, effect vs untreated controls
# Outline: as §4
# Glycine max (GLXMA) [11] = test: Post-emergence crop plant compatibility, GLXMA; details: post-emergence, effect in comparison to untreated controls
# Procedure: Seeds of monocotyledonous and dicotyledonous weeds and crop plants are placed in sandy loam in plastic or organic planting pots, covered with soil and cultivated in a greenhouse under controlled growth conditions. 2 to 3 weeks after sowing, the test plants are treated at the one-leaf stage. The compounds of the invention, formulated in the form of wettable powders (WP) or as emulsion concentrates (EC), are then sprayed onto the green parts of the plants as aqueous suspension or emulsion with addition of 0.5% additive at a water application rate of 600 l/ha (converted). After the test plants have been kept in the greenhouse under optimum growth conditions for about 3 weeks, the activity of the preparations is rated visually in comparison to untreated controls. For example, 100% activity=the plants have died, 0% activity=like control plants.
# The observed effects on selected crop plants are reported here in comparison to the untreated controls (values in %). The appendices “a”, “b” and “c” give differentiation by dosage used with otherwise the same crop plants tested.
# Brassica napus (BRSNW) = details: 80 g/ha, crop plant compatibility, in comparison to untreated controls
# Outline: as §2
# [12] = tested on: Amaranthus retroflexus (AMARE); test: Pre-emergence herbicidal action against AMARE; details: 320 g/ha, visual scoring after about 3 weeks vs untreated controls
# Outline: as §1
# [13] = tested on: Echinochloa crus-galli (ECHCG); test: Pre-emergence herbicidal action against ECHCG; details: dosage 320 g/ha
# Outline: as §1
# Lolium rigidum (LOLRI) [14] = test: Pre-emergence herbicidal action against LOLRI; details: dosage 320 g/ha
# Outline: as §1
# [15] = tested on: Matricaria inodora (MATIN); test: Pre-emergence herbicidal action against MATIN; details: dosage 320 g/ha
# Outline: as §1
# [16] = tested on: Polygonum convolvulus (POLCO); test: Pre-emergence herbicidal action against POLCO; details: dosage 320 g/ha
# Outline: as §1
# Setaria viridis (SETVI) [17] = test: Pre-emergence herbicidal action against SETVI; details: dosage 320 g/ha
# Outline: as §1
# [18] = tested on: Verconica persica (VERPE); test: Pre-emergence herbicidal action against VERPE; details: dosage 320 g/ha
# Outline: as §1
# [19] = tested on: Abutilon theophrasti (ABUTH); test: Post-emergence herbicidal action against ABUTH; details: 80 g/ha, visual rating about 3 weeks after treatment vs untreated controls (100% = plants have died, 0% = like control plants)
# Outline: as §3
# [20] = tested on: Amaranthus retroflexus (AMARE); test: Post-emergence herbicidal action against AMARE; details: 80 g/ha, visual rating about 3 weeks after treatment vs untreated controls (100% = plants have died, 0% = like control plants)
# Outline: as §3
# [21] = tested on: Echinochloa crus-galli (ECHCG); test: Post-emergence herbicidal action against ECHCG; details: dosage 80 g/ha
# Outline: as §3
# Lolium rigidum (LOLRI) [22] = test: Post-emergence herbicidal action against LOLRI; details: dosage 80 g/ha
# Outline: as §3
# [23] = tested on: Matricaria inodora (MATIN); test: Post-emergence herbicidal action against MATIN; details: dosage 80 g/ha
# Outline: as §3
# [24] = tested on: Pharbitis purpurea (PHBPU); test: Pre-emergence herbicidal action against PHBPU; details: dosage 320 g/ha
# Outline: as §1
# Avena fatua (AVEFA) = test: Post-emergence herbicidal action against AVEFA; details: 80 g/ha, visual rating about 3 weeks after treatment
# Outline: as §3
# [25] = tested on: Pharbitis purpurea (PHBPU); test: Post-emergence herbicidal action against PHBPU; details: dosage 80 g/ha
# Outline: as §3
# [26] = tested on: Abutilon theophrasti (ABUTH); test: Pre-emergence herbicidal action against ABUTH; details: Dosage column 320 g/ha (title prints 3200 g/ha); scored visually after about 3 weeks; 100% = plants have died
# Outline: as §1
# Glycine max (GLXMA) [27] = details: pre-emergence, 80 g/ha, crop plant compatibility, in comparison to untreated controls
# Outline: as §2
# [28] = 20 g/ha, effect vs untreated controls
# [29] = 80 g/ha, effect in comparison to untreated controls
Structure (SMILES),Pre-emergence action against ORYSA in % (Oryza sativa (ORYSA) [3]; 80 g/ha) [%],Pre-emergence action against ORYSA in % (Oryza sativa (ORYSA) [3]; 320 g/ha) [%],Pre-emergence action against TRZAS in % ([4]; 80 g/ha) [%],Pre-emergence action against ZEAMX in % (Zea mays (ZEAMX) [5]; 80 g/ha) [%],Pre-emergence action against ZEAMX in % (Zea mays (ZEAMX) [5]; 320 g/ha) [%],Post-emergence action against ORYSA in % (Oryza sativa (ORYSA) [8]; [28]) [%],Post-emergence action against ORYSA in % (Oryza sativa (ORYSA) [8]; [29]) [%],Post-emergence action against TRZAS in % ([9]; 20 g/ha) [%],Post-emergence action against TRZAS in % ([9]; 80 g/ha) [%],Post-emergence action against ZEAMX in % (crop plant compatibility) (Zea mays (ZEAMX) [10]) [%],Post-emergence action against ZEAMX in % (Zea mays (ZEAMX) [10]; 80 g/ha) [%],Post-emergence action against GLXMA in % (Glycine max (GLXMA) [11]; 20 g/ha) [%],Pre-emergence action against ALOMY [1] [%],Pre-emergence action against DIGSA in % ([2]; dosage 320 g/ha) [%],"Pre-emergence action against VIOTR in % (Viola tricolor (VIOTR); 320 g/ha, Viola tricolor) [%]",Pre-emergence action against VIOTR in % (Viola tricolor (VIOTR); dosage 80 g/ha) [%],Post-emergence action against ALOMY in % [6] [%],Post-emergence action against SETVI in % (Setaria viridis (SETVI) [7]) [%],Pre-emergence action against ECHCG in % [13] [%],Pre-emergence action against MATIN in % [15] [%],also measured
COC(=O)CN(C)C(=O)COc1nn(-c2ccccn2)c(-c2ccc(F)nc2)c1Br [Example I-114],0,0,20,10,20,0,0,0,0,0,0,0,100,90,90,80,90,80,,,Post-emergence action against GLXMA in % (Glycine max (GLXMA) [11]; 80 g/ha): 0%
COC(=O)COc1nn(-c2ncccc2F)c(-c2cncc(F)c2)c1Br [Example I-49],10,20,0,0,0,0,10,0,10,0,10,10,,,,,,,,,Pre-emergence action against BRSNW in % (Brassica napus (BRSNW)): 10%; Pre-emergence action against TRZAS in % ([4]; 320 g/ha): 0%

# More lines, main results first:
Pre-emergence action against ORYSA in % (Oryza sativa (ORYSA) [3]; 80 g/ha) [%],Pre-emergence action against ORYSA in % (Oryza sativa (ORYSA) [3]; 320 g/ha) [%],Pre-emergence action against TRZAS in % ([4]; 80 g/ha) [%],Pre-emergence action against ZEAMX in % (Zea mays (ZEAMX) [5]; 80 g/ha) [%],Pre-emergence action against ZEAMX in % (Zea mays (ZEAMX) [5]; 320 g/ha) [%],Post-emergence action against ORYSA in % (Oryza sativa (ORYSA) [8]; [28]) [%],Post-emergence action against ORYSA in % (Oryza sativa (ORYSA) [8]; [29]) [%],Post-emergence action against TRZAS in % ([9]; 20 g/ha) [%],Post-emergence action against TRZAS in % ([9]; 80 g/ha) [%],Post-emergence action against ZEAMX in % (crop plant compatibility) (Zea mays (ZEAMX) [10]) [%],Post-emergence action against ZEAMX in % (Zea mays (ZEAMX) [10]; 80 g/ha) [%],Post-emergence action against GLXMA in % (Glycine max (GLXMA) [11]; 20 g/ha) [%],Structure (SMILES),Pre-emergence action against ALOMY [1] [%],Pre-emergence action against DIGSA in % ([2]; dosage 320 g/ha) [%],"Pre-emergence action against VIOTR in % (Viola tricolor (VIOTR); 320 g/ha, Viola tricolor) [%]",Pre-emergence action against VIOTR in % (Viola tricolor (VIOTR); dosage 80 g/ha) [%],Post-emergence action against ALOMY in % [6] [%],Post-emergence action against SETVI in % (Setaria viridis (SETVI) [7]) [%],Pre-emergence action against ECHCG in % [13] [%],Pre-emergence action against MATIN in % [15] [%],also measured
20,,20,,,0,0,20,,10,,20,O=C(O)CSc1nn(-c2ccccn2)c(-c2cncc(Cl)c2)c1Br [Example I-126],80,100,100,100,,80,90,90,"Pre-emergence action against AMARE in % [12]: 100%; Pre-emergence action against DIGSA in % ([2]; 80 g/ha, visual scoring after about 3 weeks vs untreated controls): 90%; Pre-emergence action against LOLRI in % (Lolium rigidum (LOLRI) [14]): 100%; Pre-emergence action against POLCO in % [16]: 90%; Pre-emergence action against SETVI in % (Setaria viridis (SETVI) [17]): 90%; Pre-emergence action against VERPE in % [18]: 80%; Post-emergence action against ABUTH in % [19]: 80%; Post-emergence action against AMARE in % [20]: 80%; Post-emergence action against ECHCG in % [21]: 80%; Post-emergence action against LOLRI in % (Lolium rigidum (LOLRI) [22]): 80%; Post-emergence action against MATIN in % [23]: 80%"
10,,10,10,,0,0,10,,,,20,CCOC(=O)CSc1nn(-c2ccccn2)c(-c2cncc(F)c2)c1Br [Example I-125],80,100,90,,90,80,80,90,Pre-emergence action against AMARE in % [12]: 100%; Pre-emergence action against LOLRI in % (Lolium rigidum (LOLRI) [14]): 80%; Pre-emergence action against PHBPU in % [24]: 90%; Pre-emergence action against POLCO in % [16]: 90%; Pre-emergence action against SETVI in % (Setaria viridis (SETVI) [17]): 90%; Pre-emergence action against BRSNW in % (Brassica napus (BRSNW)): 20%; Post-emergence action against ABUTH in % [19]: 80%; Post-emergence action against AVEFA in % (Avena fatua (AVEFA)): 90%; Post-emergence action against ECHCG in % [21]: 90%; Post-emergence action against LOLRI in % (Lolium rigidum (LOLRI) [22]): 80%; Post-emergence action against MATIN in % [23]: 80%; Post-emergence action against PHBPU in % [25]: 80%
0,20,0,20,,,0,,0,,0,,O=C(CSc1nn(-c2ccccn2)c(-c2cncc(F)c2)c1Br)NC1CC1 [Example I-201],,,,,,,90,80,"Pre-emergence action against ABUTH [26]: 80%; Pre-emergence action against GLXMA in % (Glycine max (GLXMA) [27]): 0%; Post-emergence action against ORYSA in % (Oryza sativa (ORYSA) [8]; 320 g/ha, effect in comparison to untreated controls): 0%; Post-emergence action against TRZAS in % ([9]; 320 g/ha): 10%; Post-emergence action against ZEAMX in % (Zea mays (ZEAMX) [10]; 320 g/ha): 20%; Post-emergence action against GLXMA in % (Glycine max (GLXMA) [11]; 80 g/ha): 20%"
